molecular target: T1, Gag-Pol polyprotein [588-1027]/[588-1147] (Human immunodeficiency virus 1, UniProt P04585); experiment: HIV-1 RT Assay; conditions: pH 7.8; 37 °C
T1 construct: 588-1027; 588-1147
Source text: The IC50 of reverse transcriptase is the concentration that inhibits 50% of recombinant HIV-1 RT RNA-directed DNA polymerase activity in vitro.

N#CN/C(=N\c1ccc(Cl)cn1)NCCc1ccccc1 [5-chloro-2-cyano-1-(2-phenylethyl)pyridine-2-guanidine] and O=S(=O)(NCCc1ccccc1)Nc1ccc(Cl)cn1 [[(5-chloropyridin-2-yl)sulfamoyl](2-phenylethyl)amine] cannot be ordered by IC50: over 10 µM for the first, over 10 µM for the second.

O=C(CC/N=C(\S)Nc1ccc(Br)cn1)c1cc(F)ccc1F [3-(5-bromopyridin-2-yl)-1-[3-(2,5-difluorophenyl)-3-oxopropyl]thiourea] and O=C(CCNC(=S)Nc1ccc(Br)cn1)c1ccccc1 [3-(5-bromopyridin-2-yl)-1-(3-oxo-3-phenylpropyl)thiourea] cannot be ordered by IC50: under 0.025 µM for the first, under 0.027 µM for the second.

Compound COc1ccccc1CCN=C(NC#N)Nc1nccs1 [2-cyano-3-[2-(2-methoxyphenyl)ethyl]-1-1,3-thiazol-2-ylguanidine] has an IC50 of over 10 µM.

From BindingDB's records for doi:10.1016/s0960-894x(99)00675-7 (Medivir, 2000)
